From ChEMBL document CHEMBL1156829 (Proc Natl Acad Sci U S A, 2008)

What was measured:
[1] = test system: Plasmodium falciparum; assay: NOVARTIS: Inhibition of Plasmodium falciparum 3D7 (drug-susceptible) proliferation in erythrocyte-based infection assay; assay type: functional, organism-based; conditions: Plasmodium falciparum, 3D7
[2] = test system: Plasmodium falciparum; assay: NOVARTIS: Inhibition of Plasmodium falciparum W2 (drug-resistant) proliferation in erythrocyte-based infection assay; assay type: functional, organism-based; conditions: Plasmodium falciparum, W2; read-out: EC50
[3] = NOVARTIS: Cytotoxicity against human hepatocellular carcinoma cell line (Huh7); assay type: toxicity, cell-based, Huh-7; conditions: Huh7 cells (hepatocellular carcinoma cell line)

| SMILES | EC50 [1] [nM] | EC50 [2] [nM] | CC50 [3] [µM] |
| --- | --- | --- | --- |
| COC(=O)C1N(C(=O)OC)c2ccc([N+](=O)[O-])cc2S1(=O)=O (stereo not given) | 362 | > 1280 | > 10 |
| CC12CN3CC(C)(CN(C1)C3c1ccccc1)C2=O (stereo not given) | > 11200 | > 10000 | > 100 |
| CCOC(=O)C1=C(C)NC2=C(C(=O)CC(c3ccc(OC)c(OC)c3)C2)C1c1ccc(Cl)cc1Cl (stereo not given) | 25.4 | 11.6 | > 100 |
| Oc1ccc(-c2cncnc2)cc1CNC1CCN(Cc2ccccc2)CC1 | 698 | 671 | > 100 |
| COc1cccc(C2C(C(=O)Nc3ccccc3)=C(C)N=c3sc(=Cc4c[nH]c5ccccc45)c(=O)n32)c1 (stereo not given) | 2470 | 964 | > 100 |
| CCN(CC)c1ccc(NCc2ccc3c(c2)OCO3)cc1 | 603 | 805 | 24.6 |
| O=C(N/C(=C/C=C/c1ccccc1)C(=O)N1CCCCC1)c1ccc([N+](=O)[O-])cc1 | > 719 | > 889 | > 10 |
| COc1cc(/C=C2\CC/C(=C\c3cc(OC)c(OC)c(OC)c3)C2=O)cc(OC)c1OC | 458 | 457 | 0.873 |
| O=S1(=O)CCC(O)c2ccsc21 (stereo not given) | 4180 | > 12500 | > 100 |
| Cc1cc(C)cc(-n2c(C)cc(/C=C3\SC(=Nc4ccc(Br)cc4)NC3=O)c2C)c1 | 2580 | 4450 | > 100 |
| Cn1c(=NC(=O)c2ccc(S(=O)(=O)N3CCCCC3)cc2)sc2cc(Cl)ccc21 | > 1250 | 26.7 | > 10 |
| CCCCCCCC(=O)N(C)CCCNc1ccnc2cc(Cl)ccc12 | 242 | < 5.87 | > 9.69 |
| O=C1Nc2ccccc2C12Nc1ccccc1-c1nc3ccccc3n12 (stereo not given) | 1090 | 502 | > 100 |
| O=C(NCCc1ccccc1)c1cnc(NCCCN2CCCC2)nc1NCC1CCCCC1 | 603 | > 42.5 | > 10 |
| Cc1ccc(Nc2nc(N)c3ccccc3n2)cc1Cl | 527 | 755 | 8.92 |
| CC[C@@H]1CCC[C@H](C)CC[C@@H](O[C@@H]2O[C@@H](C)[C@@H](O)[C@@H](N)[C@H]2O)[C@H](CC)CCCNC1=O | 1580 | > 1250 | > 6.25 |
| COc1ccc(C)cc1Nc1nc(N)c2cc(OC)c(OC)cc2n1 | 973 | 2040 | > 10 |
| c1ccc(COCC[N+]2(Cc3ccccc3)CCCCC2)cc1 | > 1160 | > 1250 | > 10 |

| SMILES | EC50 [1] [nM] | EC50 [2] [nM] | CC50 [3] [µM] |
| --- | --- | --- | --- |
| CC(C)c1ccc(OCC(=O)NN=Cc2cccc([N+](=O)[O-])c2)cc1 | > 1250 | > 1170 | > 10 |
| CN1C(=O)NC(c2cccnc2)C(C(=O)c2cccs2)C1(O)C(F)(F)F (stereo not given) | > 11200 | > 10000 | > 100 |
| COc1cccc(C(C(=O)NC2CCCCC2)N(C(=O)c2snc(C(N)=O)c2N)c2ccc(C)cc2)c1OC (stereo not given) | 3440 | 1400 | > 100 |
| CCCOC(=O)C1=C(C)NC2=C(C(=O)CC(c3ccccc3)C2)C1c1ccc(Cl)cc1Cl (stereo not given) | 484 | 109 | > 100 |
| CCc1ccc2[nH]c(=O)c(CN(CCN(CC)CC)C(=S)NCCCN(C)C)cc2c1 | 2270 | 1530 | 38.2 |
| CCCN(CC(=O)Nc1cc(C(C)(C)C)nn1-c1cccc(C)c1C)C(=O)C1CCCCC1 | 1180 | > 1390 | 9.45 |
| CC(C)NC(=O)N1CCN(C(=O)COC(c2cccs2)c2cccnc2Cl)CC1 (stereo not given) | > 1250 | 2020 | > 10 |
| COc1ccc(C2Nc3ccc([N+](=O)[O-])cc3C3C=CCC32)cc1[N+](=O)[O-] (stereo not given) | 1500 | 616 | > 100 |
| CCOC(=O)N1CCN(c2ccc(C(F)(F)F)cn2)CC1 | > 12500 | 7180 | > 100 |
| CCCCCC1CCCc2c1[nH]c1cc(Cl)ccc1c2=O (stereo not given) | 475 | 302 | > 100 |
| CC(C)COc1nc(-c2ccccc2)n(S(=O)(=O)c2cccc3cccnc23)n1 | 42.3 | 4.56 | > 2.16 |
| CC(=O)OC1CCC2(C)C(CCC3C2CCC2(C)C3CC(O)C2(O)C(C)=O)C1 (stereo not given) | > 1250 | > 826 | > 10 |
| Clc1ccc(-c2c[n+](CCc3ccccc3)c3n2CCC3)cc1 | 380 | 299 | > 100 |
| Oc1ccc(-c2cncc(NCc3ccc4c(c3)OCO4)c2)cc1 | 1170 | 960 | > 10 |
| Cc1ccc(CNC(=O)C2CNCC2c2ccc(C(F)(F)F)cc2)cc1 (stereo not given) | 243 | 121 | > 10 |
| Cc1ccc(S(=O)(=O)N(C)CCCNc2ccnc3cc(Cl)ccc23)cc1 | 380 | 314 | 4.01 |
| CCCCCCc1ccc(/C(C=[N+](C)C)=C\N(C)C)cc1 | 335 | 260 | > 10 |
